Where two headings read alike, the source gives them in different places.
Key:
platelets = experiment: Platelet aggregation assay: ADP-induced, platelet-rich plasma; format: cell-based, human; conditions: for IC50: Homo sapiens, Platelet, n=4
Procedure: […] After 30 seconds in the aggregometer (Kowa AF-10E; Tokyo, Japan) at 37° C. with stirring, ADP (5-20 μM) is added to induce aggregation and the light transmittance is measured for 8 minutes. The initial slopes of aggregation in the presence of different concentrations of the Compound being tested are used to generate an IC50.

rat platelets = experiment: ADP-induced platelet aggregation, rat PRP (Example 45); format: cell-based; conditions: 1 μM
Procedure: Blood may be drawn via cardiac puncture from anesthetized Sprague Dawley rats (Taconic, Hudson, N.Y.), WT C57B1/6 mice (Jackson Laboratories, Bar Harbor, Me.), and mice expressing hαIIb/mβ3 and diluted 1:1 with a mixture of 4 parts 0.165 […], pH 7.4 containing 2 mM CaCl2 and 1 mM MgCl2. Blood from consenting human volunteers is obtained from a peripheral vein using a 19 gauge needle and anticoagulated with 1:10 vol 3.8% sodium citrate. Platelet-rich plasma (PRP) may be isolated by centrifugation at 22° C. at 350 g for 10 minutes (rats); 250 g for 2.5 minutes (mice); or 650 g for 4 minutes (human). Mouse PRP samples may be adjusted to 400,000 platelets/μl with the buffer used for dilution and human PRP may be adjusted to 300,000 platelets/μl with platelet-poor plasma. […] Platelet aggregation may be induced by adding to PRP adenosine diphosphate (ADP) at 30 μM (rats and WT mice), 20 or 30 μM (hαIIb/mβ3 mice), or 5 μM (humans), and light transmission may be measured over time in an aggregometer (Kowa AG-10E, Tokyo, Japan) with stirring. Percent inhibition may be calculated by comparing the initial slope of untreated samples to the samples treated with the Compounds of the Invention.

hαIIb/mβ3 platelets = experiment: ADP-induced aggregation of platelets from mice expressing hαIIb/mβ3 (Example 45); format: cell-based, mouse
Procedure: Blood may be drawn via cardiac puncture from anesthetized Sprague Dawley rats (Taconic, Hudson, N.Y.), WT C57B1/6 mice (Jackson Laboratories, Bar Harbor, Me.), and mice expressing hαIIb/mβ3 and diluted 1:1 with a mixture of 4 parts 0.165 […], pH 7.4 containing 2 mM CaCl2 and 1 mM MgCl2. Blood from consenting human volunteers is obtained from a peripheral vein using a 19 gauge needle and anticoagulated with 1:10 vol 3.8% sodium citrate. Platelet-rich plasma (PRP) may be isolated by centrifugation at 22° C. at 350 g for 10 minutes (rats); 250 g for 2.5 minutes (mice); or 650 g for 4 minutes (human). Mouse PRP samples may be adjusted to 400,000 platelets/μl with the buffer used for dilution and human PRP may be adjusted to 300,000 platelets/μl with platelet-poor plasma. Samples of PRP may be either untreated or incubated for 5 minutes at 37° C. with the Compounds of the Invention (100 μM). Platelet aggregation may be induced by adding to PRP adenosine diphosphate (ADP) at 30 μM (rats and WT mice), 20 or 30 μM (hαIIb/mβ3 mice), or 5 μM (humans), and light transmission may be measured over time in an aggregometer (Kowa AG-10E, Tokyo, Japan) with stirring. Percent inhibition may be calculated by comparing the initial slope of untreated samples to the samples treated with the Compounds of the Invention.

washed platelets [1] = experiment: Platelet adhesion/aggregation to collagen; format: cell-based, human
Procedure: Washed platelets are prepared as per the primary screening assay, suspended in HBMT containing 1 mM MgCl2 (platelet adhesion to collagen) or 2 mM CaCl2/1 mM MgCl2 (platelet adhesion to fibrinogen) and adjusted to a count of 250×10^9/L. HEK293 cells stably expressing normal human αVβ3 or normal human αIIbβ3 are suspended in HBMT containing either 1 mM MgCl2 (HEK293 cells expressing αVβ3 for adhesion to vitronectin) or 2 mM CaCl2/1 mM MgCl2 (HEK293 cells expressing αIIbβ3 for adhesion to fibrinogen); the cell counts are adjusted to 10^6/mL. Polystyrene 96-well microtiter plates (Nunc) are coated with either fibrinogen (50 μg/mL), vitronectin (5 μg/mL), or collagen (33 μg/mL, rat tail type 1; Becton Dickinson) for 1 hour, and blocked with HBMT for at least 1 hour. Platelets and cells are treated with the compound of Example 27 of the current invention or 2-ethyl-7-(piperazin-1-yl)-5H-[1,3,4]thiadiazolo-[3,2-a]pyrimidin-5-one of U.S. Ser. No. 12/514,286 in the presence or absence of anti-α2β1 mAb 6F1, anti-αIIbβ3 mAb 10E5, anti-αIIbβ3 mAb 10E5+αVβ3 mAb 7E3, αVβ3-specific mAb LM609, or anti-αVβ3+αIIbβ3 mAb 7E3, for 15 minutes at 37° C. before being added to the microtiter wells. After adhering for 1 hour at either 22° C. (platelets) or 37° C. (cells), nonadherent platelets or cells are removed by washing 3 times with HBMT containing the same ion composition as the buffer used for adhesion. […] In other experiments, 8-chambered glass coverslips (Nunc) are coated with collagen (33 μg/mL) for 1 hour at 22° C. Washed platelets are allowed to adhere for 1 hour at 22° C. and the coverslips are stained with the Alexa-488-conjugated β3-specific mAb 7H2. Adherent platelets are imaged using a Zeiss LSM-510 confocal system with Axiovert 200 microscope (Carl Zeiss, Heidelberg, Germany) using a Plan-Apochromat 100/1.4 NA oil DIC objective.

[2] = biological target: T1, HEK293 cells stably expressing normal human αIIbβ3 (Homo sapiens, UniProt P05106+P08514); experiment: αIIbβ3-mediated cell adhesion to fibrinogen; format: cell-based; conditions: same concentration as αVβ3 experiments (10 μM), n=4
T1 construct: expressed in transfected cells; host or cells: HEK293
T1 sequence (P08514 32-887 limits assumed): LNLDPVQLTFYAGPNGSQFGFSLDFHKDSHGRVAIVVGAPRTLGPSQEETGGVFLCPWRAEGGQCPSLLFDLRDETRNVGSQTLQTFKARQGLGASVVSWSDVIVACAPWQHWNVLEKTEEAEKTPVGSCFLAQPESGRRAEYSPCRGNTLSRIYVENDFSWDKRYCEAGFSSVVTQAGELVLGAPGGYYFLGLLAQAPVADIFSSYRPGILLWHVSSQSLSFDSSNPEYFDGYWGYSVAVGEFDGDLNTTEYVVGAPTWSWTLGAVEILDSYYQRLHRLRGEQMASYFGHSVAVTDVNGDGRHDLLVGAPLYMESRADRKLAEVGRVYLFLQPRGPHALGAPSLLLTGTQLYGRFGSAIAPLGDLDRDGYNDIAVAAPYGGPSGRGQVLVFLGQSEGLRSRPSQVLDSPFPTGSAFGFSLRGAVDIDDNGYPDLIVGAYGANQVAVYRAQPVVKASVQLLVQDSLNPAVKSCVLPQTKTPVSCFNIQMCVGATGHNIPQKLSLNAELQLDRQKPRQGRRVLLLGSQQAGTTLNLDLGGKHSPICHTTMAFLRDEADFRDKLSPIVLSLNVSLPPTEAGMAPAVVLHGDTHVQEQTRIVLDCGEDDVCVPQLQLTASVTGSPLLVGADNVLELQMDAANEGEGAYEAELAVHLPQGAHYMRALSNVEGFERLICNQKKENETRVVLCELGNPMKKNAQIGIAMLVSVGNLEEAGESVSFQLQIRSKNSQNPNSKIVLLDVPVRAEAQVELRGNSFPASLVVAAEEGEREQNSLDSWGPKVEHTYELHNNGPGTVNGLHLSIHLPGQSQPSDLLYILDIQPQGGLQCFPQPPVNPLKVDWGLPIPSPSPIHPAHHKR
T1 sequence (P08514 891-1039 partner limits assumed): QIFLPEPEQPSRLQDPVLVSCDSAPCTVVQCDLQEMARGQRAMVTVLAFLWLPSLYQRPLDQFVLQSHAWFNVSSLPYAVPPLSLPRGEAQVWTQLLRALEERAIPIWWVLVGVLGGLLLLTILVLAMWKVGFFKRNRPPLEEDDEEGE
T1 sequence (P05106 27-788): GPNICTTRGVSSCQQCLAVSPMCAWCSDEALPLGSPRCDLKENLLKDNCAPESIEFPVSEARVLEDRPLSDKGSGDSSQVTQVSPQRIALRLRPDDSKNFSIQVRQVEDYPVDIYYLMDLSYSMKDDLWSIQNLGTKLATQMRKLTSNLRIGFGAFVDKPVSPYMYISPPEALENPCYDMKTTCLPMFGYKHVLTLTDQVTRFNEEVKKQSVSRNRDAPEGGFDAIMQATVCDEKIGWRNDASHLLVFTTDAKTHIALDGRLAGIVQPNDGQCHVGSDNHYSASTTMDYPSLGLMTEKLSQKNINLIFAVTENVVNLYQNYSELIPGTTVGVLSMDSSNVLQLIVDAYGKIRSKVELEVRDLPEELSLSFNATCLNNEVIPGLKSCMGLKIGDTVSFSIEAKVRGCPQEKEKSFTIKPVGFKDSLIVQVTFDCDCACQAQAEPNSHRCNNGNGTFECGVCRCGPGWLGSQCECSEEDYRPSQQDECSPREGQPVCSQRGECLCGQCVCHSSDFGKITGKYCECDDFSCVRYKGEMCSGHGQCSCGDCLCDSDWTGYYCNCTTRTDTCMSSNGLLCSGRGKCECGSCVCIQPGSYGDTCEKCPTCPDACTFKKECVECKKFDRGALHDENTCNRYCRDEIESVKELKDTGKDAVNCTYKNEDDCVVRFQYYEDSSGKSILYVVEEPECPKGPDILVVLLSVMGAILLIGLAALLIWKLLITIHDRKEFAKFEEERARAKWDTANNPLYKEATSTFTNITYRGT
Procedure: Washed platelets are prepared as per the primary screening assay, suspended in HBMT containing 1 mM MgCl2 (platelet adhesion to collagen) or 2 mM CaCl2/1 mM MgCl2 (platelet adhesion to fibrinogen) and adjusted to a count of 250×10^9/L. HEK293 cells stably expressing normal human αVβ3 or normal human αIIbβ3 are suspended in HBMT containing either 1 mM MgCl2 (HEK293 cells expressing αVβ3 for adhesion to vitronectin) or 2 mM CaCl2/1 mM MgCl2 (HEK293 cells expressing αIIbβ3 for adhesion to fibrinogen); the cell counts are adjusted to 10^6/mL. Polystyrene 96-well microtiter plates (Nunc) are coated with either fibrinogen (50 μg/mL), vitronectin (5 μg/mL), or collagen (33 μg/mL, rat tail type 1; Becton Dickinson) for 1 hour, and blocked with HBMT for at least 1 hour. Platelets and cells are treated with the compound of Example 27 of the current invention or 2-ethyl-7-(piperazin-1-yl)-5H-[1,3,4]thiadiazolo-[3,2-a]pyrimidin-5-one of U.S. Ser. No. 12/514,286 in the presence or absence of anti-α2β1 mAb 6F1, anti-αIIbβ3 mAb 10E5, anti-αIIbβ3 mAb 10E5+αVβ3 mAb 7E3, αVβ3-specific mAb LM609, or anti-αVβ3+αIIbβ3 mAb 7E3, for 15 minutes at 37° C. before being added to the microtiter wells. After adhering for 1 hour at either 22° C. (platelets) or 37° C. […]

washed platelets [3] = experiment: Effect of Mg2+ concentration on platelet adhesion to fibrinogen; format: cell-based, human; conditions: for IC50: Homo sapiens, Platelet, mean±SD, three experiments
Procedure: Washed platelets in buffers containing 1 mM Ca^2+ plus 1 mM, 20 mM, or 50 mM Mg^2+ are added to wells pre-coated with fibrinogen (50 μg/ml) for 60 min at 22° C. After washing, adherent platelets are detected by acid phosphatase activity. Results are expressed as mean±SD (n=3 for the compound of Example 27 of the current invention and 2-ethyl-7-(piperazin-1-yl)-5H-[1,3,4]thiadiazolo-[3,2-a]pyrimidin-5-one (a compound disclosed and claimed in U.S. Ser. No. 12/514,286); n=2 for tirofiban).

NCC(=O)Nc1cccc(-c2nn3c(=O)cc(N4CCNCC4)nc3s2)c1 [Example 27, 2-amino-N-(3-(5-oxo-7-(piperazin-1-yl)-5H-[1,3,4]thiadiazolo[3,2-a]pyrimidin-2-yl)phenyl)acetamide]
potency in inhibiting platelet aggregation relative to 2-ethyl-7-(piperazin-1-yl)-5H-[1,3,4]thiadiazolo-[3,2-a]pyrimidin-5-one (platelets): more than one hundred-fold more potent
IC50 (platelets; PPACK instead of citrate, read-out: IC50, ADP-induced platelet aggregation with PPACK as anticoagulant): 220 nM
IC50 (platelets; citrate anticoagulant, read-out: IC50, ADP-induced platelet aggregation of citrated PRP): 90 ± 20 nM
IC50 with PPACK relative to citrate (platelets; PPACK vs citrate): ~3 fold
inhibition of rat platelet aggregation induced by ADP (rat platelets): does not inhibit either mouse or rat platelet aggregation
inhibition of aggregation of platelets from a mouse expressing hαIIb/mβ3 (hαIIb/mβ3 platelets): essentially completely inhibits the aggregation
inhibition of platelet adhesion/aggregation to collagen (washed platelets [1]; 1-100 μM): ~30%
further inhibition of adhesion/aggregation to collagen when combined with anti-αIIbβ3 antibody 10E5 (washed platelets [1]; combination with mAb 10E5): does not further inhibit adhesion/aggregation
platelet adhesion to collagen, microscopic analysis (washed platelets [1]; confocal microscopy of adherent platelets): does not decrease platelet adhesion to collagen
inhibition at 10 µM [2]: 65 ± 5%
decrease in affinity going from 1 to 50 mM Mg2+ (washed platelets [3]; 1 to 50 mM Mg2+): ~80%
increase in IC50 going from 1 to 50 mM Mg2+ (washed platelets [3]; 1 to 50 mM Mg2+): ~4.5 fold
IC50 (washed platelets [3]; 1 mM Mg2+): 290 ± 100 nM
IC50 (washed platelets [3]; 20 mM Mg2+): 910 ± 210 nM
IC50 (washed platelets [3]; 50 mM Mg2+): 1300 ± 350 nM

From patent publication US9066948B2, “Oxadiazolo[3,2-a]pyrimidines and thiadiazolo[3,2-a]pyrimidines” (THE UNITED STATES OF AMERICA AS REPRESENTED BY THE …, priority 2010, dated 2015)
